In ChEMBL document CHEMBL1201861, “Genomics of Drug Sensitity in Cancer screening data, Wellcome Trust Sanger Institute” one finds IC50 data, which are given here for one molecule.

For the first assay, the system named is GI-1. As to the kind of experiment: cells. Type of assay: functional, cell-based, Homo sapiens. Conditions: Homo sapiens, GI-1.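 Note: growth inhibition of human GI-1 cells, measured with a cell viability readout.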
Description: SANGER: Inhibition of human GI-1 cell growth in a cell viability assay.
A word on the IC50: it is the concentration at which inhibition is half-maximal. Low readings indicate greater potency in that assay, high ones weaker potency in that assay. As to `CO[C@@H]1[C@H](N(C)C(=O)c2ccccc2)C[C@H]2O[C@]1(C)n1c3ccccc3c3c4c(c5c6ccccc6n2c5c31)C(=O)NC4` [MIDOSTAURIN], the IC50 amounted to 319 nM.

The subject of the next assay is GT3TKB. As to the kind of experiment: cells. Type of assay: functional, cell-based, Homo sapiens. Conditions: Homo sapiens, GT3TKB.
Description: SANGER: Inhibition of human GT3TKB cell growth in a cell viability assay.
In turn, `CO[C@@H]1[C@H](N(C)C(=O)c2ccccc2)C[C@H]2O[C@]1(C)n1c3ccccc3c3c4c(c5c6ccccc6n2c5c31)C(=O)NC4` [MIDOSTAURIN] registered an IC50 of 380 nM.

Another assay relates to HOP-62. As to the kind of experiment: cells. It counts as functional, cell-based, Homo sapiens. The following applies: Homo sapiens, HOP-62.
Description: SANGER: Inhibition of human HOP-62 cell growth in a cell viability assay.
`CO[C@@H]1[C@H](N(C)C(=O)c2ccccc2)C[C@H]2O[C@]1(C)n1c3ccccc3c3c4c(c5c6ccccc6n2c5c31)C(=O)NC4` [MIDOSTAURIN] gave an IC50 of 181 nM.

A further assay deals with KARPAS-45. As to the kind of experiment: cells. Type of assay: functional, cell-based, Homo sapiens. Conditions: Homo sapiens, KARPAS-45.
Description: SANGER: Inhibition of human KARPAS-45 cell growth in a cell viability assay.
`CO[C@@H]1[C@H](N(C)C(=O)c2ccccc2)C[C@H]2O[C@]1(C)n1c3ccccc3c3c4c(c5c6ccccc6n2c5c31)C(=O)NC4` [MIDOSTAURIN] came in with an IC50 greater than 512 nM.

The subject of another assay is Lu-65. Briefly: cells. It counts as functional, cell-based, Homo sapiens. The following applies: Homo sapiens, Lu-65.
Description: SANGER: Inhibition of human LU-65 cell growth in a cell viability assay.
`CO[C@@H]1[C@H](N(C)C(=O)c2ccccc2)C[C@H]2O[C@]1(C)n1c3ccccc3c3c4c(c5c6ccccc6n2c5c31)C(=O)NC4` [MIDOSTAURIN]: the concentration for half-maximal inhibition (IC50) is greater than 512 nM.

The next assay concerns NCI-H747. Briefly: cells. Type of assay: functional, cell-based, Homo sapiens. Conditions: Homo sapiens, NCI-H747.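 Note: growth inhibition of human NCI-H747 cells, read out by a cell viability assay.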
Description: SANGER: Inhibition of human NCI-H747 cell growth in a cell viability assay.
As to `CO[C@@H]1[C@H](N(C)C(=O)c2ccccc2)C[C@H]2O[C@]1(C)n1c3ccccc3c3c4c(c5c6ccccc6n2c5c31)C(=O)NC4` [MIDOSTAURIN], the IC50 was greater than 512 nM.

The test system of the next assay is BE-13. As to the kind of experiment: cells. It counts as functional, cell-based, Homo sapiens. The following applies: Homo sapiens, BE-13.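 Note: growth inhibition of human BE-13 cells, measured with a cell viability assay.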
Description: SANGER: Inhibition of human BE-13 cell growth in a cell viability assay.
Take `CO[C@@H]1[C@H](N(C)C(=O)c2ccccc2)C[C@H]2O[C@]1(C)n1c3ccccc3c3c4c(c5c6ccccc6n2c5c31)C(=O)NC4` [MIDOSTAURIN]: the half-inhibitory concentration (IC50) was greater than 512 nM.

The test system of the next assay is no-11. Briefly: cells. Type of assay: functional, cell-based, Homo sapiens. Conditions: Homo sapiens.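 Note: growth inhibition of human NO-11 cells, read out with a cell viability assay.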
Description: SANGER: Inhibition of human no-11 cell growth in a cell viability assay.
Turning to `CO[C@@H]1[C@H](N(C)C(=O)c2ccccc2)C[C@H]2O[C@]1(C)n1c3ccccc3c3c4c(c5c6ccccc6n2c5c31)C(=O)NC4` [MIDOSTAURIN], the half-maximal inhibitory concentration (IC50) was greater than 512 nM.

In the next assay the test system is COLO-684. As to the kind of experiment: cells. It counts as functional, cell-based, Homo sapiens. Conditions: Homo sapiens, COLO-684.
Description: SANGER: Inhibition of human COLO-684 cell growth in a cell viability assay.
The molecule `CO[C@@H]1[C@H](N(C)C(=O)c2ccccc2)C[C@H]2O[C@]1(C)n1c3ccccc3c3c4c(c5c6ccccc6n2c5c31)C(=O)NC4` [MIDOSTAURIN] yielded a half-inhibitory concentration (IC50) greater than 512 nM.
